Reference: PubChem BioAssay (NCI)
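Exposure lasted 48 hours, with cells grown in 96-well plates and compounds tested at five concentrations. Abbreviation: GI50, concentration required for 50% inhibition of growth. Definition used: TGI = concentration required for complete inhibition of growth.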

Key:
Assay in all cases: inhibition of tumour cell growth, NCI panel, 48 h
SK-OV-3 ovarian = system: SK-OV-3 ovarian
LOX IMVI melanoma = system: LOX IMVI melanoma
KM12 colon = system: KM12 colon
SK-MEL-2 melanoma = system: SK-MEL-2 melanoma
UO-31 renal = system: UO-31 renal
U251 CNS = system: U251 CNS
CCRF-CEM leukemia = system: CCRF-CEM leukemia
RPMI-8226 leukemia = system: RPMI-8226 leukemia
HCT-15 colon = system: HCT-15 colon
UACC-62 melanoma = system: UACC-62 melanoma

Row | Structure (SMILES) | TGI (SK-OV-3 ovarian) [µM] | TGI (LOX IMVI melanoma) [µM] | TGI (KM12 colon) [µM] | TGI (SK-MEL-2 melanoma) [µM] | TGI (UO-31 renal) [µM] | TGI (U251 CNS) [µM] | TGI (CCRF-CEM leukemia) [µM] | TGI (RPMI-8226 leukemia) [µM] | TGI (HCT-15 colon) [µM] | TGI (UACC-62 melanoma) [µM] | GI50 (SK-OV-3 ovarian) [µM] | GI50 (LOX IMVI melanoma) [µM] | GI50 (KM12 colon) [µM] | GI50 (SK-MEL-2 melanoma) [µM] | GI50 (UO-31 renal) [µM] | GI50 (U251 CNS) [µM] | GI50 (CCRF-CEM leukemia) [µM] | GI50 (RPMI-8226 leukemia) [µM] | GI50 (HCT-15 colon) [µM] | GI50 (UACC-62 melanoma) [µM]
1 | CC12c3ccccc3C(OC=O)(c3ccccc31)C1(C)c3ccccc3C2(OC=O)c2ccccc21 | > 100 | > 100 | > 100 | > 100 | > 100 | > 100 | 89.1 | > 100 | > 100 | > 100 | – | – | – | – | – | – | – | – | – | –
2 | COC(=N)c1csc(C2OC(CO)C(O)C2O)n1 (stereo not drawn) | > 100 | > 100 | > 100 | > 100 | > 100 | > 100 | > 100 | > 100 | > 100 | > 100 | – | – | – | – | – | – | – | – | – | –
3 | O=C(Nc1nc(-c2c[nH]c3ccccc23)cs1)c1n[nH]c(=O)c2ccccc12 | > 100 | 17.9 | > 100 | > 100 | > 67.7 | 24 | 98.8 | 58.2 | > 36.7 | > 100 | 12.6 | 0.644 | 1.76 | 13.4 | 8.46 | 0.663 | 1.27 | 0.957 | 0.29 | 1.45
4 | COC(=O)C1=CN(CC2=CC(=O)C(C)=CC2=O)C=C(C(=O)OC)C1c1ccccc1OC | > 100 | 42.9 | > 72.3 | > 100 | 31.2 | 46.7 | 14.1 | 40.7 | 39.2 | 27.5 | > 100 | 21.4 | 23.6 | 45.2 | 16.4 | 20 | 5.48 | 10.3 | 18.9 | 13.3
5 | NCCCn1c2c(c3ccc([N+](=O)[O-])cc3c1=O)C(=O)c1cc(I)ccc1-2 | 6.5 | 1.39 | 1.31 | 2.28 | 1.5 | 1.39 | 0.279 | 0.265 | 1.79 | 1.21 | 0.0825 | < 0.01 | 0.127 | 0.649 | 0.0273 | < 0.01 | < 0.01 | 0.0218 | 0.17 | < 0.01
6 | Cc1nc2c(Br)cc(Br)cc2c(=O)n1-c1nnc(-c2cccc(Cl)c2Cl)c(N)n1 | > 100 | 39.9 | 40.3 | > 100 | > 100 | 72.5 | > 100 | 87 | 50.9 | 37.3 | 24.9 | 12.9 | 11.4 | 27.4 | 31 | 21.7 | 19.3 | 9.39 | 15.4 | 13.4
7 | COc1cc2c3c(n(C)c(=O)c2cc1OC)-c1cc2c(cc1C3=O)OCO2 | > 100 | > 73 | > 100 | > 72.2 | > 100 | > 100 | 22.5 | > 100 | > 100 | 32.4 | – | – | – | – | – | – | – | – | – | –
8 | COCOCCC#CCO | > 100 | > 100 | > 100 | > 100 | > 100 | > 100 | > 100 | > 100 | > 100 | > 100 | – | – | – | – | – | – | – | – | – | –
9 | O=[N+]([O-])c1ccccc1N=Nc1c(O)[nH]c2c(Cl)cc(Cl)cc12 | > 100 | > 100 | > 100 | > 74.3 | > 100 | 27.7 | > 100 | > 100 | > 100 | > 100 | – | – | – | – | – | – | – | – | – | –
10 | Cc1cccc(NC2=C(Cl)C(=O)c3nc(C)ccc3C2=O)c1 | 24.2 | 1.46 | 10.8 | 4.19 | 2.59 | 2.67 | > 100 | 5.17 | 2.09 | 2.49 | 11.7 | 0.351 | 2.67 | 1.93 | 1.29 | 1.09 | 2.29 | 1.48 | 0.431 | 1.13
11 | Nc1nc(Cl)nc2c1ncn2C1CC(O)C(CO)O1 (stereo not drawn) | > 100 | 30.6 | > 100 | > 100 | 8.76 | > 96.5 | 11.5 | > 100 | > 100 | 6.15 | – | – | – | – | – | – | – | – | – | –
12 | COc1cc(/C=C2\CCCCC3=C2N=C2SC(C)=CN2C3c2cc(OC)c(OC)c(OC)c2)cc(OC)c1OC (stereo not drawn) | > 100 | > 100 | > 100 | > 100 | > 100 | > 100 | > 100 | > 100 | – | > 100 | 6.23 | > 100 | 36.8 | 9.91 | 22.6 | 19.2 | 34.7 | 0.013 | – | 3.26
13 | CCN(CCNS(C)(=O)=O)c1ccc(N)c(C)c1 | 32 | 12.4 | 26.9 | 29.3 | 7.67 | 32.5 | 7.29 | 8.32 | 17.4 | – | 17.9 | 3.48 | 13.1 | 14.3 | 2.58 | 18.1 | 2.29 | 3.16 | 3.48 | –
14 | FC(F)(F)c1ccc2nc(NCc3ccccc3)c(-c3ccccc3)nc2c1 | > 100 | 52.7 | – | > 100 | 92.9 | 86.8 | > 100 | 98.9 | > 100 | > 100 | – | – | – | – | – | – | – | – | – | –
15 | COc1c(C)c(OCC=C(C)C)cc(CO)c1CO | > 100 | > 100 | > 100 | > 100 | – | > 100 | > 100 | > 100 | > 100 | > 100 | – | – | – | – | – | – | – | – | – | –
16 | CCCCCCCCCCCC[N+]12CC[N+](CCN)(CC1)CC2 | > 100 | > 100 | 62.7 | > 100 | > 100 | > 100 | > 100 | > 100 | – | > 100 | – | – | – | – | – | – | – | – | – | –
